Measured values: patent US7576222B2, “Alkynyl-containing tryptophan derivative inhibitors of TACE/matrix metalloproteinase” (priority 2004, dated 2009)

target: T1, catalytic domain of the recombinant TACE protein (Homo sapiens, UniProt P78536); assay: TACE FRET assay using TACE cat; type: biochemical; conditions: not given
T1 construct: The catalytic domain of the recombinant TACE protein was expressed and purified; made in house
Experimental: TACE FRET Assay Using TACE Cat
“K” is the IC50. Generally, “n” and “B” are floated, noting that n (Hill slope) should be close to 1 and B (background offset) to 0.
Pro-TNF-α substrate peptide Abz-[…]-Dpa (AnaSpec, San Jose, Calif., WARC-1) was prepared as a 2 mM stock solution in the TACE assay buffer (50 mM Tris-HCl, pH 7.4, 25 mM NaCl, 4% Glycerol, 0.005% Brij 35). The catalytic domain of the recombinant TACE protein was expressed and purified. The TACE protein (1 ug/ml) was pretreated with the inhibitors at various concentrations for 10 min. at room temperature. The reaction was initiated by the addition of the substrate peptide. […] The initial rate (slope) of the reaction was determined using a fluorescence plate reader (Molecular Devices, Spectra Max Gemini XS).

T1 sequence (P78536 223-474 limits assumed): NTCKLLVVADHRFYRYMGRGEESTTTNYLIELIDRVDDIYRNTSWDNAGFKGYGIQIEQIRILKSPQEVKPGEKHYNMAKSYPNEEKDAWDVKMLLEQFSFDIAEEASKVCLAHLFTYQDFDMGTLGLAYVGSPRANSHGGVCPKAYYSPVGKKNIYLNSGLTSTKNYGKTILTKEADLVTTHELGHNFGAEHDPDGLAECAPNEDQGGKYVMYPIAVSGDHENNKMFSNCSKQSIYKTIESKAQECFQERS

Molecule | IC50 [nM]
CC#CCOc1ccc(S(=O)(=O)N[C@@H](Cc2c[nH]c3cc(C)ccc23)C(=O)O)cc1 [Example 8, N-{[4-(but-2-ynyloxy)phenyl]sulfonyl}-6-methyltryptophan] | 1570
CC#CCOc1ccc(S(=O)(=O)N[C@@H](Cc2c(C)n(Cc3ccccc3C(F)(F)F)c3ccc(OC)cc23)C(=O)O)cc1 [Example 193, N-{[4-(but-2-ynyloxy)phenyl]sulfonyl}-5-methoxy-2-methyl-1-[2-(trifluoromethyl)benzyl]tryptophan] | 450
CC#CCOc1ccc(S(=O)(=O)N[C@H](Cc2cn(CC3CCCCC3)c3ccccc23)C(=O)O)cc1 [Example 23, N-{[4-(but-2-ynyloxy)phenyl]sulfonyl}-1-(cyclohexylmethyl)-D-tryptophan] | 1710
CC#CCOc1ccc(S(=O)(=O)N[C@@H](Cc2cn(CC3CCCCC3)c3ccc(OC)cc23)C(=O)O)cc1 [Example 70, N-{[4-(but-2-ynyloxy)phenyl]sulfonyl}-1-(cyclohexylmethyl)-5-methoxytryptophan] | 1870
CC#CCOc1ccc(S(=O)(=O)N[C@@H](Cc2c[nH]c3ccc(F)cc23)C(=O)O)cc1 [Example 3, N-{[4-(but-2-ynyloxy)phenyl]sulfonyl}-5-fluorotryptophan] | 1560
CC#CCOc1ccc(S(=O)(=O)N[C@@H](Cc2cn(Cc3cccc(C(F)(F)F)c3)c3ccc(OC)cc23)C(=O)O)cc1 [Example 56, N-{[4-(but-2-ynyloxy)phenyl]sulfonyl}-5-methoxy-1-[3-(trifluoromethyl)benzyl]tryptophan] | 2070
CC#CCOc1ccc(S(=O)(=O)N[C@@H](Cc2c(C)n(Cc3ccccc3F)c3ccc(OC)cc23)C(=O)O)cc1 [Example 197, N-{[4-(but-2-ynyloxy)phenyl]sulfonyl}-1-(2-fluorobenzyl)-5-methoxy-2-methyltryptophan] | 300
CC#CCOc1ccc(S(=O)(=O)N[C@@H](Cc2c[nH]c3cc(F)ccc23)C(=O)O)cc1 [Example 7, N-{[4-(but-2-ynyloxy)phenyl]sulfonyl}-6-fluorotryptophan] | 2960

same assay, conditions: TACE FRET assay, Conc. 1 μM

Molecule | TACE Inhibition (%)
CC#CCOc1ccc(S(=O)(=O)N[C@@H](Cc2cn(Cc3ccccc3OC)c3ccc(C(=O)O)cc23)C(=O)O)cc1 [Example 107] | 7.34

same assay, conditions: TACE FRET assay, catalytic domain of recombinant TACE; read-out: TACE IC50

Molecule | IC50 [nM]
CC#CCOc1ccc(S(=O)(=O)N[C@H](Cc2cn(Cc3ccc(Cl)cc3)c3ccccc23)C(=O)O)cc1 [Example 42, N-{[4-(but-2-ynyloxy)phenyl]sulfonyl}-1-(4-chlorobenzyl)-D-tryptophan] | 3450
C=CCOc1ccc(Cn2cc(C[C@@H](NS(=O)(=O)c3ccc(OCC#CC)cc3)C(=O)O)c3ccccc32)cc1 [Example 216, 1-[4-(allyloxy)benzyl]-N-{[4-(but-2-ynyloxy)phenyl]sulfonyl}-D-tryptophan] | 540
CC#CCOc1ccc(S(=O)(=O)N[C@@H](Cc2cn(Cc3ccc(OC)cc3)c3ccccc23)C(=O)O)cc1 [Example 19, N-{[4-(but-2-ynyloxy)phenyl]sulfonyl}-1-(4-methoxybenzyl)-L-tryptophan] | 1190
N-{[4-(but-2-ynyloxy)phenyl]sulfonyl}-methoxy-L(or D)-tryptophan [Example 222] | 10100

same assay, conditions: read-out: TACE Inhibition (%)

Molecule | inhibition at 1 µM [%]
CC#CCOc1ccc(S(=O)(=O)N[C@@H](Cc2cn(Cc3ccccc3OC)c3ccc(OC)cc23)C(=O)O)cc1 [Example 51, N-{[4-(but-2-ynyloxy)phenyl]sulfonyl}-5-methoxy-1-(2-methoxybenzyl)tryptophan] | 38.3
CC#CCOc1ccc(S(=O)(=O)N[C@@H](Cc2cn(Cc3ccc(OC(F)(F)F)cc3)c3ccc(C(=O)O)cc23)C(=O)O)cc1 [Example 114, N-{[4-(but-2-ynyloxy)phenyl]sulfonyl}-5-carboxy-1-[4-(trifluoromethoxy)benzyl]tryptophan] | 10.3
CC#CCOc1ccc(S(=O)(=O)N[C@@H](Cc2cn(Cc3cccc(OC)c3)c3ccc(Cl)cc23)C(=O)O)cc1 [Example 75, N-{[4-(but-2-ynyloxy)phenyl]sulfonyl}-5-chloro-1-(3-methoxybenzyl)tryptophan] | 25
CC#CCOc1ccc(S(=O)(=O)N[C@@H](Cc2cn(Cc3ccc(C(F)(F)F)cc3)c3ccc(Cl)cc23)C(=O)O)cc1 [Example 77, N-{[4-(but-2-ynyloxy)phenyl]sulfonyl}-5-chloro-1-[4-(trifluoromethyl)benzyl]tryptophan] | 29.8
CC#CCOc1ccc(S(=O)(=O)N[C@@H](Cc2cn(Cc3ccc(OC(F)(F)F)cc3)c3ccc(Cl)cc23)C(=O)O)cc1 [Example 78, N-{[4-(but-2-ynyloxy)phenyl]sulfonyl}-5-chloro-1-[4-(trifluoromethoxy)benzyl]tryptophan] | 7.39
CC#CCOc1ccc(S(=O)(=O)N[C@@H](Cc2cn(Cc3cccc(OC)c3)c3ccc(C#N)cc23)C(=O)O)cc1 [Example 138, N-{[4-(but-2-ynyloxy)phenyl]sulfonyl}-5-cyano-1-(3-methoxybenzyl)tryptophan] | 29.4
CC#CCOc1ccc(S(=O)(=O)N[C@@H](Cc2c(C)n(Cc3ccc(C(F)(F)F)cc3)c3ccccc23)C(=O)O)cc1 [Example 150, N-{[4-(but-2-ynyloxy)phenyl]sulfonyl}-2-methyl-1-[4-(trifluoromethyl)benzyl]tryptophan] | 35.6
CC#CCOc1ccc(S(=O)(=O)N[C@@H](Cc2c(C)n(Cc3ccc(OC(F)(F)F)cc3)c3ccc(OC)cc23)C(=O)O)cc1 [Example 196, N-{[4-(but-2-ynyloxy)phenyl]sulfonyl}-5-methoxy-2-methyl-1-[4-(trifluoromethoxy)benzyl]tryptophan] | 72.8
CC#CCOc1ccc(S(=O)(=O)N[C@@H](Cc2cn(Cc3ccc(Cl)cc3)c3ccc(Cl)cc23)C(=O)O)cc1 [Example 81, N-{[4-(but-2-ynyloxy)phenyl]sulfonyl}-5-chloro-1-(4-chlorobenzyl)tryptophan] | 13.9
CC#CCOc1ccc(S(=O)(=O)N[C@@H](Cc2c(C)n(Cc3ccccc3)c3ccccc23)C(=O)O)cc1 [Example 144, 1-benzyl-N-{[4-(but-2-ynyloxy)phenyl]sulfonyl}-2-methyltryptophan] | 18.8
CC#CCOc1ccc(S(=O)(=O)N[C@@H](Cc2cn(Cc3cc(OC)cc(OC)c3)c3ccc(C(=O)O)cc23)C(=O)O)cc1 [Example 110, N-{[4-(but-2-ynyloxy)phenyl]sulfonyl}-5-carboxy-1-(3,5-dimethoxybenzyl)tryptophan] | 8.02
CC#CCOc1ccc(S(=O)(=O)N[C@@H](Cc2cn(Cc3ccc(C(C)C)cc3)c3ccc(OC)cc23)C(=O)O)cc1 [Example 63, N-{[4-(but-2-ynyloxy)phenyl]sulfonyl}-1-(4-isopropylbenzyl)-5-methoxytryptophan] | 28.2
CC#CCOc1ccc(S(=O)(=O)N[C@@H](Cc2cn(Cc3ccc(C#N)cc3)c3ccc(C(=O)O)cc23)C(=O)O)cc1 [Example 123, N-{[4-(but-2-ynyloxy)phenyl]sulfonyl}-5-carboxy-1-(4-cyanobenzyl)tryptophan] | -2.56
CC#CCOc1ccc(S(=O)(=O)N[C@@H](Cc2cn(Cc3cccnc3)c3ccc(C(=O)O)cc23)C(=O)O)cc1 [Example 125, N-{[4-(but-2-ynyloxy)phenyl]sulfonyl}-5-carboxy-1-(pyridin-3-ylmethyl)tryptophan] | 6.23
CC#CCOc1ccc(S(=O)(=O)N[C@@H](Cc2c(C)n(CC3CCCCC3)c3ccc(OC)cc23)C(=O)O)cc1 [Example 213, N-{[4-(but-2-ynyloxy)phenyl]sulfonyl}-1-(cyclohexylmethyl)-5-methoxy-2-methyltryptophan] | 60.5
CC#CCOc1ccc(S(=O)(=O)N[C@@H](Cc2cn(Cc3ccccc3C#N)c3ccc(OC)cc23)C(=O)O)cc1 [Example 64, N-{[4-(but-2-ynyloxy)phenyl]sulfonyl}-1-(2-cyanobenzyl)-5-methoxytryptophan] | 40.9
CC#CCOc1ccc(S(=O)(=O)N[C@@H](Cc2cn(Cc3ccccc3C)c3ccc(Cl)cc23)C(=O)O)cc1 [Example 72, N-{[4-(but-2-ynyloxy)phenyl]sulfonyl}-5-chloro-1-(2-methylbenzyl)tryptophan] | 27.5
CC#CCOc1ccc(S(=O)(=O)N[C@@H](Cc2c(C)n(Cc3ccccc3F)c3ccccc23)C(=O)O)cc1 [Example 152, N-{[4-(but-2-ynyloxy)phenyl]sulfonyl}-1-(2-fluorobenzyl)-2-methyltryptophan] | 51.7
CC#CCOc1ccc(S(=O)(=O)N[C@@H](Cc2cn(CC3CCCCC3)c3ccc(Cl)cc23)C(=O)O)cc1 [Example 87, N-{[4-(but-2-ynyloxy)phenyl]sulfonyl}-5-chloro-1-(cyclohexylmethyl)tryptophan] | 37.4
CC#CCOc1ccc(S(=O)(=O)N[C@@H](Cc2c(C)n(Cc3cccc(OC)c3)c3ccccc23)C(=O)O)cc1 [Example 147, N-{[4-(but-2-ynyloxy)phenyl]sulfonyl}-1-(3-methoxybenzyl)-2-methyltryptophan] | 35.6
CC#CCOc1ccc(S(=O)(=O)N[C@@H](Cc2cn(Cc3ccc(OC)cc3)c3ccc(Cl)cc23)C(=O)O)cc1 [Example 76, N-{[4-(but-2-ynyloxy)phenyl]sulfonyl}-5-chloro-1-(4-methoxybenzyl)tryptophan] | 18.3
CC#CCOc1ccc(S(=O)(=O)N[C@@H](Cc2cn(Cc3cccc(OC)c3)c3ccc(C(=O)O)cc23)C(=O)O)cc1 [Example 108, N-{[4-(but-2-ynyloxy)phenyl]sulfonyl}-5-carboxy-1-(3-methoxybenzyl)tryptophan] | 9.93
